This note sets out measurements from patent US7074789B2, “Kinase inhibitors” (Amgen Inc., priority 1999, dated 2006).

Structures are written as SMILES.

What all share (assay type): biochemical
One experiment concerns the target T1, c-Met (Homo sapiens, UniProt P08581).
T1 construct: Kinases are expressed as either kinase domains or full length constructs; made in house
The experiment is described as follows: Kinase inhibition assay (33P transfer), c-Met. To be noted: Table 2, class symbols A-E; read-out: Met-1. In outline: (§1)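 Steps: coat wells with poly(Glu,Tyr) 4:1 or poly(Arg,Ser) 3:1; add purified kinase, [33P]ATP and inhibitor; incubate; wash with 0.5% phosphoric acid; add liquid scintillant; count. IC50 corresponds to half-maximal reduction of bound 33P.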

In another experiment the target is T2, PDGFRB (Homo sapiens, UniProt P09619).
T2 construct: Kinases are expressed as either kinase domains or full length constructs; made in house
T2 sequence (P09619 33-1106, species assumed): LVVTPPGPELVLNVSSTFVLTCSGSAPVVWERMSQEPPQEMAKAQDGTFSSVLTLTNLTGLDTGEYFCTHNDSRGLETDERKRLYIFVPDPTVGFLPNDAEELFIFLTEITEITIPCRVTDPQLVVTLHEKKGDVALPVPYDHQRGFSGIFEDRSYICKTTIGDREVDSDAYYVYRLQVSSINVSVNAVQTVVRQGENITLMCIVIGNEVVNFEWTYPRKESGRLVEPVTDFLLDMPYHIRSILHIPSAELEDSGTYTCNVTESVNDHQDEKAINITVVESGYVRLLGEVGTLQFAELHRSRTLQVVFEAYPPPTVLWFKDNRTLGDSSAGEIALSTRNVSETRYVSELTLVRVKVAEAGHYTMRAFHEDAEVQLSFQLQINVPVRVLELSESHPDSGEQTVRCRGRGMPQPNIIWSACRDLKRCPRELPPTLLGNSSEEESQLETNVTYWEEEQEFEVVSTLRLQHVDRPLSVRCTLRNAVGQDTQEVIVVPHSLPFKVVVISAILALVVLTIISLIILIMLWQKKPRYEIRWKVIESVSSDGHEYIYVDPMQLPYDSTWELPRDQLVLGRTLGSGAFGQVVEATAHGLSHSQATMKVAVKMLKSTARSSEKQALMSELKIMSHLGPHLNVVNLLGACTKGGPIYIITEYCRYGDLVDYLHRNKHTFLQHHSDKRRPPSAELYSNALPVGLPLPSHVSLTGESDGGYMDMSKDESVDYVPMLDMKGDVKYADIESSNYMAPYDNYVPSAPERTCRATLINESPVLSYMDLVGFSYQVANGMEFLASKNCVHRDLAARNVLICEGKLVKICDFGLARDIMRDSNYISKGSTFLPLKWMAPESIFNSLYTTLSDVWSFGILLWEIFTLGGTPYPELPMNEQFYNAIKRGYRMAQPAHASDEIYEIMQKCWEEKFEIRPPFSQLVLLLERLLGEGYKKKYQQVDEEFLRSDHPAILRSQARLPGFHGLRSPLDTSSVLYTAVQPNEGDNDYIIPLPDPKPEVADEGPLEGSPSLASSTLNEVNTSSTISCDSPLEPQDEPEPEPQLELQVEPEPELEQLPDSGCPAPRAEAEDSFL
The experiment is described as follows: Kinase inhibition assay (33P transfer), PDGFRB. To be noted: read-out: PDGFRB-1.

Another experiment has as its target T3, IGFR-1 (Homo sapiens, UniProt P08069).
T3 construct: Kinases are expressed as either kinase domains or full length constructs; made in house
The experiment is described as follows: Kinase inhibition assay (33P transfer), IGFR-1. To be noted: Table 2, class symbols A-E.

The next experiment deals with T4, Kdr (Homo sapiens, UniProt P35968).
T4 construct: Kinases are expressed as either kinase domains or full length constructs; made in house
The experiment is described as follows: Kinase inhibition assay (33P transfer), Kdr. To be noted: Table 3, class symbols; read-out: KDR-1. In outline:
(§2)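 Activity was read as 33P incorporation, counted by liquid scintillation after a 0.5% phosphoric acid wash, into poly(Glu,Tyr) 4:1 or poly(Arg,Ser) 3:1 substrates coated on plates. Enzymes were tagged (GST or polyHis) kinase domains or full-length proteins from bacterial or insect-cell expression, sometimes with regulatory polypeptides.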

The target in another experiment is T5, EGFR (Homo sapiens, UniProt P00533).
T5 construct: Kinases are expressed as either kinase domains or full length constructs; made in house
The experiment is described as follows: Kinase inhibition assay (33P transfer), EGFR. To be noted: Table 2, class symbols A-E; read-out: EGFR-1. In outline: as §1

In the next experiment the target is T6, ErbB2 (Homo sapiens, UniProt P04626).
T6 construct: Kinases are expressed as either kinase domains or full length constructs; made in house
T6 sequence (P04626 23-1255, species assumed): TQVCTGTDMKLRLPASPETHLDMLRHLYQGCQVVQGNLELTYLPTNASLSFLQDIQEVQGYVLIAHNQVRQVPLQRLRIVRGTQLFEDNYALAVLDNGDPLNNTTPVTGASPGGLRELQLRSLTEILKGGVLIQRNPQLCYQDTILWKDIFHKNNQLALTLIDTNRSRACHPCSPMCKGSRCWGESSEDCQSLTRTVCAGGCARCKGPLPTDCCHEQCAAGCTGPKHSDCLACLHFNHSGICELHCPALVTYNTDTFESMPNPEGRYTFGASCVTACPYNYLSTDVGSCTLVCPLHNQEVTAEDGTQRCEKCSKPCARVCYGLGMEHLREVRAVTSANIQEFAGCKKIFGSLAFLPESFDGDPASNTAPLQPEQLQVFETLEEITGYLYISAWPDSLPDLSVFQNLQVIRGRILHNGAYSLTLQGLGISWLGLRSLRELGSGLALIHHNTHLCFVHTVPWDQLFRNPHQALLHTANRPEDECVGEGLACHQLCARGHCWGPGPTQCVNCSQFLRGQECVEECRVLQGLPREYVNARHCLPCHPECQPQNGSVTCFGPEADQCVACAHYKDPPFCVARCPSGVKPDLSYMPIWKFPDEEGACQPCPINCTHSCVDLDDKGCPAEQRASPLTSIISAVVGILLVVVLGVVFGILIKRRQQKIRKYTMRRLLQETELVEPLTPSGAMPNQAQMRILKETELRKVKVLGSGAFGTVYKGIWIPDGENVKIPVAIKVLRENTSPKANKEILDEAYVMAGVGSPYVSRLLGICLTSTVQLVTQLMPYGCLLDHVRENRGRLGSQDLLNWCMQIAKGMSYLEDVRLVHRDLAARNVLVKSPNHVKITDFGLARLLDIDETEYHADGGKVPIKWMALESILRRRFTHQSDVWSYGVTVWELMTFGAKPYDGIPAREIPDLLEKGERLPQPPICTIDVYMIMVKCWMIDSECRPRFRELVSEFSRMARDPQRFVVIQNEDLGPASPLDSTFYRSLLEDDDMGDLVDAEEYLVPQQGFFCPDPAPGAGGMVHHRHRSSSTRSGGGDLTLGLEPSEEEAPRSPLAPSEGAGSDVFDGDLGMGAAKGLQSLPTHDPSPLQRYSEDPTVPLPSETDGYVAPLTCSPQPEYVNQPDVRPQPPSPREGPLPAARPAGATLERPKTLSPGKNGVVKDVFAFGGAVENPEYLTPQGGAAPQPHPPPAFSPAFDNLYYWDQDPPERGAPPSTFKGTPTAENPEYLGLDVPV
The experiment is described as follows: Kinase inhibition assay (33P transfer), ErbB2. To be noted: read-out: ErbB2-2. In outline:
as §1

The target of another experiment is T7, Itk (Homo sapiens, UniProt Q08881).
T7 construct: Kinases are expressed as either kinase domains or full length constructs; made in house
T7 sequence (Q08881 1-620): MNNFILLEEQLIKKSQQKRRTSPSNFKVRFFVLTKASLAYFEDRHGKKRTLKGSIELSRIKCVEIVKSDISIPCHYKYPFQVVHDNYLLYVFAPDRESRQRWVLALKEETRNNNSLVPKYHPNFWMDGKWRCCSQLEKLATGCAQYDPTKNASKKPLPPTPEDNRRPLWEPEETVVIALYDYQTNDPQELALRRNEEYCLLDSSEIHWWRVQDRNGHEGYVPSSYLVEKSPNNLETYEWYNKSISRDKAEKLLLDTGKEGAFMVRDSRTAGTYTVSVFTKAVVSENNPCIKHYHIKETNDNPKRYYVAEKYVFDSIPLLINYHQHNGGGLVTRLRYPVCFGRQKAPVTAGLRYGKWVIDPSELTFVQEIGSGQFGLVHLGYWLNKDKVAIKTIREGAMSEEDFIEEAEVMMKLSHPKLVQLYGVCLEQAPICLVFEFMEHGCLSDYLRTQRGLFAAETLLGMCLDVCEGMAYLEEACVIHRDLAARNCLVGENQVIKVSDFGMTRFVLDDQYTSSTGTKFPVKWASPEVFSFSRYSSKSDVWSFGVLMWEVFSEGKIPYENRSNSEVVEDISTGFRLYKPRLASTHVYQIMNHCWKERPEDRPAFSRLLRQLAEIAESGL
The experiment is described as follows: Kinase inhibition assay (33P transfer), Itk. To be noted: Table 3, class symbols; read-out: Itk-1. The method, boiled down: as §1

The target in another experiment is T8, Zap-70 (Homo sapiens, UniProt P43403).
T8 construct: Kinases are expressed as either kinase domains or full length constructs; made in house
T8 sequence (P43403 1-619): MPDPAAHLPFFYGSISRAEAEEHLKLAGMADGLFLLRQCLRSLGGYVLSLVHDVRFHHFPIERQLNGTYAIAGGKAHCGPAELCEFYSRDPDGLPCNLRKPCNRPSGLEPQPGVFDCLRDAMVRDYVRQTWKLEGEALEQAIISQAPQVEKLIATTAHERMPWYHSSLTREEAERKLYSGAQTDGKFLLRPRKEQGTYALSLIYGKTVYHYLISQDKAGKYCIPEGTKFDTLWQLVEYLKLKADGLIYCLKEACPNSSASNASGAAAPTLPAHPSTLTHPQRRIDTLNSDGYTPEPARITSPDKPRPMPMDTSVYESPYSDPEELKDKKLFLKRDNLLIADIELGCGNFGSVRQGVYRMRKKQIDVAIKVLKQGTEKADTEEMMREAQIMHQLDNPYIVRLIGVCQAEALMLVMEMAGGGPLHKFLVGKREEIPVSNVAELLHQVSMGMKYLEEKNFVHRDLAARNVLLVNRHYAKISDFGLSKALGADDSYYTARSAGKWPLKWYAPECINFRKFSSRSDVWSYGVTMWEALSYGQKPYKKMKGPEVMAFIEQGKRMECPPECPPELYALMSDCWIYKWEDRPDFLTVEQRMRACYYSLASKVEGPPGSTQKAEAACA
The experiment is described as follows: Kinase inhibition assay (33P transfer), Zap-70. To be noted: Table 3, class symbols; read-out: Zap-1. The method, boiled down:
as §2

Another experiment has as its target T9, Lck (Homo sapiens, UniProt P06239).
T9 construct: Kinases are expressed as either kinase domains or full length constructs; made in house
The experiment is described as follows: Kinase inhibition assay (33P transfer), Lck. To be noted: Table 3, class symbols; read-out: Lck-1. In outline:
as §2

A further experiment concerns the target T10, AKT (Homo sapiens, UniProt Q9Y243).
T10 construct: Kinases are expressed as either kinase domains or full length constructs; made in house
The experiment is described as follows: Kinase inhibition assay (33P transfer), AKT. To be noted: Table 2, class symbols A-E; read-out: AKT3-1. The method, boiled down: as §2

T10 sequence (Q9Y243 whole entry, the tested form may be a part): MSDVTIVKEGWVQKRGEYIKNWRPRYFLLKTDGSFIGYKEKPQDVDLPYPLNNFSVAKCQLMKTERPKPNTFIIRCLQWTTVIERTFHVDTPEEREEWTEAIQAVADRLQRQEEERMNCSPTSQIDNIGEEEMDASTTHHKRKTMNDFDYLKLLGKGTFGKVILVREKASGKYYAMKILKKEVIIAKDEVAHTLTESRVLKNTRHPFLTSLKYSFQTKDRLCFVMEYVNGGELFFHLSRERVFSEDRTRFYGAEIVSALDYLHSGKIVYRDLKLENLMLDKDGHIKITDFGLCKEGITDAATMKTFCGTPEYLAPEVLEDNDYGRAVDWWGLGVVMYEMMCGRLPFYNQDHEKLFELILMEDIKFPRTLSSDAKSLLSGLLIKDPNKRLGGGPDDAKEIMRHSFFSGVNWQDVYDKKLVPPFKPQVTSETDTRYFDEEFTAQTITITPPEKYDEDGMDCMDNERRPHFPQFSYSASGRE
T9 sequence (P06239 whole entry, species assumed, the tested form may be a part): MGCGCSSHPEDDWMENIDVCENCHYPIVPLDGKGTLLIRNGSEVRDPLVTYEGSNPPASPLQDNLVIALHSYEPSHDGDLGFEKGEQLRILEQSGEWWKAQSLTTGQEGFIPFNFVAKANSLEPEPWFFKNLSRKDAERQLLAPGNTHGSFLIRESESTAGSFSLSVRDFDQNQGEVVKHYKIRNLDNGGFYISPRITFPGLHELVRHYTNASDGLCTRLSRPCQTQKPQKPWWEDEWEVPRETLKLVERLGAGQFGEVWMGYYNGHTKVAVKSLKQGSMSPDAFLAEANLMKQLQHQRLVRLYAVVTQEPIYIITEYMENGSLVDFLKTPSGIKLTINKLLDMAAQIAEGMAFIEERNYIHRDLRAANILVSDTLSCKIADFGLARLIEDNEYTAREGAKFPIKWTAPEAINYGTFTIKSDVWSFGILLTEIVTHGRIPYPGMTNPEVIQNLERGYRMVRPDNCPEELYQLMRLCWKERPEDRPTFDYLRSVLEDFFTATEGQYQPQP
T3 sequence (P08069 31-1367): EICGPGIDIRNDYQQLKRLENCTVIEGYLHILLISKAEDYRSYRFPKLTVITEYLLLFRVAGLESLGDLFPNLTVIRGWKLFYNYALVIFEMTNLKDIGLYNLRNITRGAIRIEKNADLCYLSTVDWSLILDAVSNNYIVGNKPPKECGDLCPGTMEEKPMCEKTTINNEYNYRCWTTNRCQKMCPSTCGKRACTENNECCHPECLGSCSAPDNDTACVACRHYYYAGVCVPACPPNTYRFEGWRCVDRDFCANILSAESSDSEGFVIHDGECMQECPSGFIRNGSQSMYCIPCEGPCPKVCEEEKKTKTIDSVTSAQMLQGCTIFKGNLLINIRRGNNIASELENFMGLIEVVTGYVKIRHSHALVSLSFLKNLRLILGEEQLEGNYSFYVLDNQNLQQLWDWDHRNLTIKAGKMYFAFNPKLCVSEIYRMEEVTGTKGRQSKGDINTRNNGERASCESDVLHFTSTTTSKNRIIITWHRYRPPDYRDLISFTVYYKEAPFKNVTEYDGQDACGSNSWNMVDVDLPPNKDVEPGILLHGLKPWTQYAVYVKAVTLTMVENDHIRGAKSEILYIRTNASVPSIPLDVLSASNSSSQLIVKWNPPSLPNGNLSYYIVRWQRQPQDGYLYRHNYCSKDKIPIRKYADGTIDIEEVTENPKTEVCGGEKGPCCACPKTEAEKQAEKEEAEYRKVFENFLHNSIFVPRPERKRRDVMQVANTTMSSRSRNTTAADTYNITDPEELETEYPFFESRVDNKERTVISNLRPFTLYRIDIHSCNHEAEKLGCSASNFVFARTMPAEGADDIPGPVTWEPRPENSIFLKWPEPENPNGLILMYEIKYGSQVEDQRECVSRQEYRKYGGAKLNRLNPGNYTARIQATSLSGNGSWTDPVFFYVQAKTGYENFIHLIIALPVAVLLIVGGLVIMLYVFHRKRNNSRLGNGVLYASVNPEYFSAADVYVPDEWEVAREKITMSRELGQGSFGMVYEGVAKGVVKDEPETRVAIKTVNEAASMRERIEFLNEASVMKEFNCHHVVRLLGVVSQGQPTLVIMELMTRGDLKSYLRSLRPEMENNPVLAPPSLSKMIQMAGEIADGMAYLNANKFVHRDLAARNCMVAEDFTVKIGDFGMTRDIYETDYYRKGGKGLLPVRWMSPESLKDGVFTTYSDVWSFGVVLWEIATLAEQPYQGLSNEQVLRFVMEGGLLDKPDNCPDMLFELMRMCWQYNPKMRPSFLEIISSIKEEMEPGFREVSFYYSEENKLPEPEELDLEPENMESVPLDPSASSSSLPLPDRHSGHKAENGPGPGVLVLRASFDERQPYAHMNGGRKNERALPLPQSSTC

For the compound `COc1cc(Nc2ncnc(-c3cccnc3Nc3ccc(C(C)=O)cc3)n2)cc(OC)c1OC` [Compound 832], the IC50 on c-Met is 0.847 to 5.08 µM; at PDGFRB, over 9.52 µM; against IGFR-1 it was over 9.52 µM; on Kdr, 0.847 to 5.08 µM; on EGFR it was over 9.52 µM; on ErbB2, over 9.52 µM. For the same compound, the IC50 at Itk, at Zap-70, at Lck and at AKT was over 9.52 µM in each case.

As for `COc1cc(Nc2ncnc(-c3cccnc3Nc3ccc(C(F)(F)F)cc3)n2)cc(OC)c1OC` [Compound 835], the IC50 on c-Met, on PDGFRB, against IGFR-1, at Kdr, on EGFR and on ErbB2 was over 9.03 µM in each case. Besides, the IC50 on Itk, at Zap-70, at Lck and on AKT was over 9.03 µM each time.

As for `CN(c1ccc2c(cnn2Cc2ccccc2)c1)c1ncnc(Nc2cccc(Br)c2)n1` [Compound 667], the IC50 on c-Met was 7.2 to 9.25 µM; on PDGFRB it was over 9.25 µM; against IGFR-1, over 9.25 µM; at Kdr, over 9.25 µM; at EGFR, under 0.822 µM; on ErbB2, 0.822 to 4.93 µM. The IC50 on Itk, on Zap-70, at Lck and on AKT was over 9.25 µM in each case.

`Fc1ccc(CNc2ncnc(Nc3cc(-c4ccco4)n[nH]3)n2)cc1` [Compound 996]: the IC50 at c-Met is over 12.8 µM; on PDGFRB it was over 12.8 µM; against IGFR-1 it was 1.14 to 6.83 µM; on Kdr it was over 12.8 µM; at EGFR, 9.96 to 12.8 µM; at ErbB2 it was over 12.8 µM. Further, the IC50 at Itk, on Zap-70, at Lck and at AKT was over 12.8 µM in each case.

On to `FC(F)(F)Oc1cccc(Nc2ncnc(Nc3ccc4c(cnn4Cc4ccccc4)c3)n2)c1` [Compound 907], for which the IC50 is 5.03 to 7.33 µM at c-Met; over 9.43 µM at PDGFRB; over 9.43 µM at IGFR-1; over 9.43 µM on Kdr; under 0.838 µM at EGFR; 0.838 to 5.03 µM on ErbB2. Further, the IC50 on Itk, on Zap-70, on Lck and at AKT was over 9.43 µM throughout.

For the compound `COc1cc(Nc2ncnc(N(C)c3cccc(Cl)c3)n2)cc2ccccc12` [Compound 876], the IC50 on c-Met was over 11.5 µM; on PDGFRB, over 11.5 µM; against IGFR-1, over 11.5 µM; on Kdr, over 11.5 µM; on EGFR it was under 1.02 µM; at ErbB2, 1.02 to 6.12 µM. For the same compound, the IC50 is 8.93 to 11.5 µM on Itk, over 11.5 µM on Zap-70, over 11.5 µM on Lck and over 11.5 µM on AKT.

With `COc1cc(Nc2ncnc(-c3cccnc3NC(C)C)n2)ccc1NC(=O)CCCN1CCNCC1` [Compound 1096], the IC50 at c-Met is 6.92 to 8.9 µM; on PDGFRB, under 0.791 µM; on IGFR-1 it was over 8.9 µM; at Kdr, 0.791 to 4.75 µM; on EGFR, over 8.9 µM; on ErbB2, over 8.9 µM. The IC50 is 4.75 to 6.92 µM at Itk, over 8.9 µM at Zap-70, 0.791 to 4.75 µM at Lck and 6.92 to 8.9 µM at AKT.

With `COc1cc(Nc2ncnc(-c3cccnc3Nc3cc(Cl)cc(Cl)c3)n2)cc(OC)c1OC` [Compound 837], the IC50 on c-Met, at PDGFRB, on IGFR-1, at Kdr, at EGFR and on ErbB2 was over 9.01 µM in each case. For the same compound, the IC50 on Itk, at Zap-70, at Lck and at AKT was over 9.01 µM in each case.

Regarding `COc1cc(Nc2ncnc(-n3ccnc3Cl)n2)cc(OC)c1OC` [Compound 1071], the IC50 at c-Met is over 12.4 µM; at PDGFRB, 1.1 to 6.62 µM; against IGFR-1, 1.1 to 6.62 µM; on Kdr it was 9.65 to 12.4 µM; at EGFR, 1.1 to 6.62 µM; on ErbB2, over 12.4 µM. In addition, the IC50 was 1.1 to 6.62 µM at Itk, over 12.4 µM at Zap-70, 9.65 to 12.4 µM on Lck and over 12.4 µM at AKT.

In the case of `Cc1ccc2c(c1)CCCN2c1ncnc(Nc2ccc(F)c(F)c2)n1` [Compound 893], the IC50 on c-Met was 1.13 to 6.79 µM; on PDGFRB it was 1.13 to 6.79 µM; against IGFR-1, over 12.7 µM; at Kdr it was over 12.7 µM; at EGFR, 1.13 to 6.79 µM; on ErbB2 it was over 12.7 µM. Moreover, the IC50 on Itk was over 12.7 µM; at Zap-70 it was over 12.7 µM; on Lck, over 12.7 µM; at AKT, 1.13 to 6.79 µM.

`CC(C)Nc1ncccc1-c1ncnc(Nc2cccc(Cn3ccnn3)c2)n1` [Compound 1098]: the IC50 was 6.19 to 9.03 µM at c-Met; 1.03 to 6.19 µM on PDGFRB; over 11.6 µM at IGFR-1; 1.03 to 6.19 µM at Kdr; 6.19 to 9.03 µM at EGFR; over 11.6 µM on ErbB2. Moreover, the IC50 on Itk is 1.03 to 6.19 µM; at Zap-70, over 11.6 µM; at Lck it was 1.03 to 6.19 µM; at AKT it was 6.19 to 9.03 µM.

`COc1ccc(Nc2ncnc(Nc3ccc4ncsc4c3)n2)cc1OC` [Compound 895]: the IC50 was over 11.8 µM at c-Met; under 1.05 µM at PDGFRB; under 1.05 µM on IGFR-1; 1.05 to 6.31 µM on Kdr; 1.05 to 6.31 µM on EGFR; 6.31 to 9.2 µM at ErbB2. Besides, the IC50 at Itk is 1.05 to 6.31 µM; on Zap-70 it was over 11.8 µM; at Lck it was 1.05 to 6.31 µM; on AKT it was over 11.8 µM.

Consider `COc1ccc(Nc2ncnc(Nc3cc(Cl)cc(Cl)c3)n2)cc1OC` [Compound 898], for which the IC50 is over 11.5 µM at c-Met; 8.92 to 11.5 µM at PDGFRB; 6.12 to 8.92 µM on IGFR-1; over 11.5 µM at Kdr; 6.12 to 8.92 µM at EGFR; over 11.5 µM at ErbB2. The IC50 at Itk, at Zap-70, on Lck and at AKT was over 11.5 µM throughout.

For `COc1cc(Nc2ncnc(-c3cccnc3NC(C)c3ccccc3)n2)cc(OC)c1OC` (centres unmarked) [Compound 843], the IC50 at c-Met was over 9.81 µM; on PDGFRB it was under 0.872 µM; on IGFR-1, over 9.81 µM; on Kdr, under 0.872 µM; on EGFR, over 9.81 µM; on ErbB2, 7.63 to 9.81 µM. Besides, the IC50 is over 9.81 µM on Itk, over 9.81 µM on Zap-70, under 0.872 µM at Lck and over 9.81 µM on AKT.
